We go through 14 compounds from ChEMBL document CHEMBL4024791, “Identification of Morpholino-2H-pyrido[3,2-b][1,4]oxazin-3(4H)-ones as Nonsteroidal Mineralocorticoid Antagonists” (J Med Chem, 2018).

The source made the active and inactive calls. No cut-off for these calls is given here.

A short description of data set [1]: Intrinsic clearance in human liver microsomes. In general terms: Microsomes from liver hold many membrane-bound enzymes, among them those of drug oxidation.
Data set [2] has as its target T1, Mineralocorticoid receptor (Homo sapiens, UniProt P08235).
T1 sequence (P08235 whole entry): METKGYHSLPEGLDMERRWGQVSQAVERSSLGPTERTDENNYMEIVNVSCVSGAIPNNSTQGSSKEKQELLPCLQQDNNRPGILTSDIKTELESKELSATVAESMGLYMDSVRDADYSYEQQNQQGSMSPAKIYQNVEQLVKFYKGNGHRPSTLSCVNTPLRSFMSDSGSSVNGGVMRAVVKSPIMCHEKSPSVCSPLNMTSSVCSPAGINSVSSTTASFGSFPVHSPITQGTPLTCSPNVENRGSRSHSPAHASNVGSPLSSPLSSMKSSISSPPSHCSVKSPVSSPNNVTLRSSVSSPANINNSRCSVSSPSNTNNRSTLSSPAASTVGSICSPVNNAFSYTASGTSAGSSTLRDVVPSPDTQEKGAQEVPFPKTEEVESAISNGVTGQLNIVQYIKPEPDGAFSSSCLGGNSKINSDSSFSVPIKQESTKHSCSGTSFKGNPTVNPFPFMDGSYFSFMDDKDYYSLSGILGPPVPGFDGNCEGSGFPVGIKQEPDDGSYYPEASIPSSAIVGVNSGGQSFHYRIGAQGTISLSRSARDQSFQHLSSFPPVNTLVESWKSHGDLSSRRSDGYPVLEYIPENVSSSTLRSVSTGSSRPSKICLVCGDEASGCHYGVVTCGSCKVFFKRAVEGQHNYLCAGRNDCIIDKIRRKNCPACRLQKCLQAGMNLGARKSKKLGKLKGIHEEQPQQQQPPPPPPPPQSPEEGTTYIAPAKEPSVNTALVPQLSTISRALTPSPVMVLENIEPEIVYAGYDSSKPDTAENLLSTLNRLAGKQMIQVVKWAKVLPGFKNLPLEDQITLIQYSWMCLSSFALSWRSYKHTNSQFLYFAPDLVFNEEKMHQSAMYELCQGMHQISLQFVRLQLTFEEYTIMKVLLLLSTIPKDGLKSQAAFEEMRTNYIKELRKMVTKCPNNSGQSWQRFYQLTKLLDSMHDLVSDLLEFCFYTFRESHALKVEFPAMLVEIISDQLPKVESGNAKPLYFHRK
Description: Displacement of [3H]-aldosterone from human GST-tagged MR ligand binding domain after 4 hrs by liquid scintillation counting

The nature of data set [3]: Distribution coefficient, log D of the compound. In kind it is physicochemical. Conditions: octanol/water.
The nature of data set [4]: Intrinsic clearance in rat liver microsomes.
In data set [5] the target is T1, Mineralocorticoid receptor. The source holds these as a separate data set.
Description: Antagonist activity at human GAL4-DBD fused MR ligand binding domain transfected in human Huh7 cells co-expressing GAL4-RE-Luc assessed as reduction in aldosterone-induced luciferase activity after 16 hrs in presence of serum by luciferase reporter gene assay
A short description of data set [6]: Clearance in rat at 1 mg/kg, iv. Conditions: in vivo.
The test system of the next data set is Rattus norvegicus. Kind of data set: In vivo antagonist activity at MR in Wistar rat assessed as increase in urinary Na+ /K+ ratio at 100 mg/kg, po administered as single dose measured after 2 to 6 hrs post dose. It is filed as functional, organism-based.

As a reminder, the microsomal CLint is the capacity of the preparation to metabolise the compound, expressed as a volume cleared per time. Low values mean slow turnover, high ones rapid turnover. What is called IC50 is the concentration that gives 50% inhibition. The low end stands for higher potency, the high end for lower potency. Usually logD stands for lipophilicity at a set pH, counting ionised and neutral species. Lower therefore signals lower lipophilicity. In data set [1], `O=C1COc2ccc(N3CCOC[C@H]3c3ccccc3)nc2N1` returned an intrinsic metabolic clearance (microsomal CLint) of 8.9 µL/min/mg. The compound further showed a half-inhibitory concentration (IC50) in data set [2] of 1180 nM. In data set [3], this compound returned a logD of 2.4.

Compound `CC1(C)CN(c2ccc3c(n2)NC(=O)CO3)[C@H](c2ccccc2)CO1` registered a microsomal CLint in data set [1] of 15.2 µL/min/mg. The compound further had an IC50 in data set [2] of 86 nM. Moreover, the pH-dependent lipophilicity (logD) in data set [3] was determined as 3.3.

Broadly, the clearance is a measure of how efficiently the substance is removed, as volume per time. For `O=C1COc2ccc(N3C[C@@H](CO)OC[C@H]3c3ccccc3)nc2N1`, the figures for the intrinsic clearance (microsomal CLint) in data set [1] and in data set [4] were 14.8 µL/min/mg and 44 µL/min/mg, respectively. The concentration for half-maximal inhibition (IC50) is over 10000 nM in data set [2] and 10000 nM in data set [5]. Further, the pH-dependent lipophilicity (logD) in data set [3] was 1.8. The compound further had a clearance in data set [6] of 52 mL/min/kg.

In data set [1], `C[C@@H]1CN(c2cc3c(cn2)OCC(=O)N3)[C@H](c2ccccc2)CO1` displayed a microsomal CLint of 12.6 µL/min/mg. Moreover, in data set [2], the IC50 was determined as 109 nM. Also, the log distribution coefficient (logD) in data set [3] was found to be 2.5.

As to `N#CC[C@@H]1CN(c2ccc3c(n2)NC(=O)CO3)[C@H](c2ccccc2)CO1`, the intrinsic metabolic clearance (microsomal CLint) in data set [1] was determined as 11.9 µL/min/mg. This compound displayed an IC50 in data set [2] of 56 nM. Besides, the logD in data set [3] was 2.3.

For the compound `COC(=O)[C@@H]1CC2=CC(=O)CC[C@]2(C)[C@@]23O[C@@H]2C[C@@]2(C)[C@@H](CC[C@@]24CCC(=O)O4)[C@H]13`, the inhibition entry with Rattus norvegicus was “Active”.

In data set [1], `COC[C@@H]1CN(c2ccc3c(n2)NC(=O)CO3)[C@H](c2ccccc2)CO1` had a microsomal CLint of 8 µL/min/mg. For the same compound, the IC50 was determined as 276 nM in data set [2] and 358 nM in data set [5]. Further, in data set [3], the logD turned out to be 2.5.

In data set [1], `C[C@@H]1CN(c2cnc3c(c2)NC(=O)CO3)[C@H](c2ccccc2)CO1` came in with a microsomal CLint of 13.9 µL/min/mg. For the same compound, the half-maximal inhibitory concentration (IC50) in data set [2] came to 2220 nM. For the same compound, the logD in data set [3] is 1.9.

`C[C@H]1CN(c2ccc3c(n2)NC(=O)CO3)[C@H](c2ccccc2)CO1` had a log distribution coefficient (logD) in data set [3] of 2.7.

In data set [1], `C[C@@H]1CN(c2ccc3c(n2)NC(=O)CO3)[C@H](c2ccccc2F)CO1` had a microsomal CLint of 14 µL/min/mg. In addition, the IC50 in data set [2] was found to be 13 nM; in data set [5] it was 33 nM. In data set [3], this compound had a pH-dependent lipophilicity (logD) of 3.1.

With `C[C@@H]1CN(c2ccc3c(c2)NC(=O)CO3)[C@H](c2ccccc2)CO1`, the intrinsic metabolic clearance (microsomal CLint) amounted to 15.8 µL/min/mg in data set [1] and 377 µL/min/mg in data set [4]. Also, 13 nM corresponded to half-maximal inhibition in data set [2] (IC50). Further, in data set [3], the logD amounted to 3.1. Moreover, the clearance in data set [6] is 54 mL/min/kg.

As for `C[C@@H]1CN(c2ncc3c(n2)NC(=O)CO3)[C@H](c2ccccc2)CO1`, the values for the microsomal CLint in data set [1] and in data set [4] were 8 µL/min/mg and 146 µL/min/mg, respectively. This compound also returned a 50% inhibitory concentration (IC50) in data set [2] of 113 nM. This compound registered a logD in data set [3] of 2.7. Moreover, in data set [6], the clearance stood at 95 mL/min/kg.

As for `C[C@@H]1CN(c2ccc3c(n2)NC(=O)CO3)[C@H](c2ccc(F)cc2)CO1`, in data set [1], the intrinsic metabolic clearance (microsomal CLint) was 8 µL/min/mg. The compound also returned a log distribution coefficient (logD) in data set [3] of 3.2.

Regarding `C[C@@H]1CN(c2ccc3c(n2)NC(=O)CO3)[C@H](c2cccc(F)c2)CO1`, in data set [1], the microsomal CLint worked out at 9.6 µL/min/mg. The compound also showed a log distribution coefficient (logD) in data set [3] of 3.1.
